Results from PubChem BioAssay (NCI).
Several values for one entry are separate records, joined by “and”; a condition that tells them apart may be missing. Equal entries are not always repeated.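 Exposure lasted 48 hours, with cells grown in 96-well plates and compounds tested at five concentrations. GI50: concentration for 50% inhibition of growth. TGI marks complete inhibition of growth.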

What was measured:
Assay in all cases: NCI anticancer screen, dose series, 48 h
[1] = test system: CCRF-CEM leukemia
[2] = test system: COLO 205 colon
[3] = test system: HCT-116 colon
[4] = test system: K-562 leukemia
[5] = test system: LOX IMVI melanoma
[6] = test system: MDA-MB-231 breast
[7] = test system: OVCAR-3 ovarian
[8] = test system: RPMI-8226 leukemia
[9] = test system: SN12C renal
[10] = test system: UO-31 renal

| SMILES | GI50 [1] | TGI [1] | GI50 [2] | TGI [2] | GI50 [3] | TGI [3] | GI50 [4] | TGI [4] | GI50 [5] | TGI [5] | GI50 [6] | TGI [6] | GI50 [7] | TGI [7] | GI50 [8] | TGI [8] | GI50 [9] | TGI [9] | GI50 [10] | TGI [10] |
| --- | --- | --- | --- | --- | --- | --- | --- | --- | --- | --- | --- | --- | --- | --- | --- | --- | --- | --- | --- | --- |
| COc1cc(N=Nc2cc(Cc3ccc(N(C)C)cc3)c(N)cc2N(C)C)c2ncccc2c1 | 0.126 µM | 2.29 µM | 0.176 µM | 1.21 µM | 0.0426 µM | 1.19 µM | 0.139 µM | 1.74 µM | 0.465 µM | 1.87 µM | 0.512 µM | 2.17 µM | 0.0406 µM | 1.08 µM | 0.313 µM | 2.1 µM | 0.649 µM | 2.32 µM | 0.252 µM | 1.97 µM |
| CC(=O)c1cc2c(N)c(C(=O)Nc3cccc4ccccc34)sc2nc1C | 2.02 µM | > 50 µM | 1.12 µM | 3.2 µM | 2.23 µM | > 50 µM | 1.23 µM | > 50 µM | 2.58 µM | > 50 µM | 3.41 µM | > 50 µM | 1.67 µM | 11.4 µM | 1.76 µM | > 50 µM | 3.44 µM | > 50 µM | 4.27 µM | > 50 µM |
| N=C(N)c1ccc2oc3ccc(C(=N)N)cc3c(=O)c2c1 | – | > 100 µM | – | > 100 µM | – | > 100 µM | – | > 100 µM | – | – | – | > 100 µM | – | > 100 µM | – | > 100 µM | – | > 100 µM | – | > 100 µM |
| [Br][Pb]([c]1ccccc1)([c]1ccccc1)[c]1ccccc1 | 0.202 µM | > 100 µM | 0.177 µM | 0.356 µM | 0.176 µM | 0.352 µM | 0.139 µM | – | 0.132 µM | 0.299 µM | 0.208 µM | 0.514 µM | 0.139 µM | 0.272 µM | 0.179 µM | 0.681 µM | 0.228 µM | 0.677 µM | 0.141 µM | 0.279 µM |
| COc1cccc(C2CC(=O)Nc3c2c(C)nn3-c2nc3ccccc3[nH]2)c1OC (stereo not given) | 1.86 µM | > 100 µM | 5.72 µM | 20.1 µM | 3.36 µM | 14.6 µM | 3.89 µM | > 100 µM | 3.65 µM | 12.9 µM | 2.92 µM | 8.26 µM | 4.55 µM | 19.8 µM | 3.21 µM | 10.6 µM | 4.29 µM | 48.3 µM | 3.35 µM | 23.6 µM |
| CNC(=O)CCN1CCN(CC/C=C2\c3ccccc3Sc3ccc(Cl)cc32)CC1 | 6.31 µM | 44.8 µM | 2.48 µM | 6 µM | 5.76 µM | 20.9 µM | 4.2 µM | > 37.1 µM | 5.15 µM | 18.9 µM | 10.6 µM | 24.7 µM | 11.8 µM | 27 µM | 3.65 µM | 18.2 µM | 12.1 µM | 26.6 µM | 11.4 µM | 27.4 µM |
| CN(C)CCCN1c2ccccc2Sc2ccc(C(F)(F)F)cc21 | 1.92 µM | 5 µM and 38.5 µM and 39 µM | 1.38 µM | – | 1.64 µM | 3.13 µM and 28.5 µM and 27.2 µM | 2.03 µM | 4.08 µM and 30.9 µM | 1.57 µM | 2.98 µM and 28.9 µM and 29.7 µM | 1.45 µM | 2.9 µM and 26.5 µM | – | – | 2.03 µM | 6.06 µM and 35.7 µM and 45.4 µM | 1.66 µM | 3.62 µM and 32.2 µM and 29.5 µM | 1.48 µM | 5.38 µM and 28.3 µM and 28.9 µM |
| O=[N+]([O-])c1cccc(/C=N/Nc2ccc3ccccc3n2)c1O | – | – | – | 9.48 µM | – | 4.77 µM | – | > 100 µM | – | 12.7 µM | – | 25.6 µM | – | 0.632 µM | – | 24.3 µM | – | 16.1 µM | – | 3 µM |
| Fc1ccccc1CN1COc2c(cc(Cl)c3cccnc23)C1 | – | – | – | 28.3 µM | – | 13.2 µM | – | 8.41 µM | – | – | – | 4.3 µM | – | 19.2 µM | – | – | – | 1.57 µM | – | 17.7 µM |
| CCCCCCCCCCCCCCCCCc1nc(Cl)nc(Cl)c1Cl | – | > 100 µM | – | > 100 µM | – | > 100 µM | – | > 100 µM | – | > 100 µM | – | > 100 µM | – | > 100 µM | – | > 100 µM | – | > 100 µM | – | > 100 µM |
| O=C(Nc1ccn(C2CC(O)C(COC(c3ccccc3)(c3ccccc3)c3ccccc3)O2)c(=O)n1)c1ccccc1 (stereo not given) | – | 6.2 µM | – | 4.07 µM | – | 4.29 µM | – | 7.3 µM | – | – | – | 7.5 µM | – | 3.52 µM | – | 5.2 µM | – | 3.61 µM | – | 18.7 µM |
| Cc1ccc(NCCNCC(C)(C)O)c2c(=O)c3ccc(Cl)cc3sc12 | – | – | 1.34 µM | 2.92 µM | 1.3 µM | 2.66 µM | – | – | – | – | 1.16 µM | 2.57 µM | 1.66 µM | 3.13 µM | – | – | 1.47 µM | 3.01 µM | 1.03 µM | 2.24 µM |
| CC1(C)N=C(N)N=C(N)N1c1ccc(CCCC(=O)Nc2ccc(S(=O)(=O)F)cc2)cc1 | 4.13 µM | > 100 µM | 5.59 µM | > 100 µM | 3.69 µM | > 100 µM | 2.13 µM | > 100 µM | 6.03 µM | > 100 µM | 45.7 µM | > 100 µM | 33.6 µM | > 100 µM | 5.36 µM | > 100 µM | 6.15 µM | > 100 µM | > 100 µM | > 100 µM |
| CN1C2C=CC(=O)C1C1C(=O)N(c3ccccc3)C(=O)C12 (stereo not given) | 7.51 µM | > 100 µM | 7.81 µM | 22 µM | 3.57 µM | 16.2 µM | 10.2 µM | > 100 µM | 3.74 µM | 13.3 µM | 15.3 µM | 37.8 µM | 2.35 µM | 6.73 µM | – | – | 5.09 µM | 31.9 µM | 3.49 µM | 17.9 µM |
